Data from patent US9289364B2, “Tyrosinase inhibitors” (Avon Products, Inc., priority 2013, dated 2016).

Legend:
[1] = test system: Mushroom tyrosinase; experiment: Mushroom tyrosinase assay (conversion of L-Tyrosine to DOPAchrome); assay type: biochemical; settings: 25° C., 30 min, absorbance 492 nm
Method: Mushroom tyrosinase and L-Tyrosine were obtained from Sigma-Aldrich, Inc. (St. Louis, Mo.). The enzyme activity was measured in buffer containing 100 mM phosphate buffer pH 6.8, 5% absolute ethanol, 2 micrograms/milliliter mushroom tyrosinase, and 0.2 mg/ml L-Tyrosine. The reaction (conversion of L-Tyrosine to DOPAchrome) was conducted in triplicates at 25° C. for 30 min, and absorbance was then measured at 492 nm. Kojic Acid was used as a positive control inhibitor in these assays. Percent change in tyrosinase activity relative to vehicle control was calculated.

[2] = test system: B16 mouse melanoma cells; experiment: Inhibition of melanin production in B16 melanoma cell assay; assay type: cell-based; settings: 4 days, alpha MSH 2 nanogram/ml, normalized to cell viability (MTT)
Method: The effects of various test compounds on melanin levels were determined by performing assays using B16 melanoma cells. These cells are known to constitutively produce melanin and are a commonly utilized and accepted model system for monitoring the inhibition of melanin synthesis. The B16 mouse melanoma cells were seeded (ATCC, cat. #: CRL-6475) into 96-well tissue culture-treated plates (BD Falcon) and treated with test actives or controls in phenol red free DMEM (Mediatech; cat. #: 17-205-CV) with 2 nanogram/ml of alpha MSH (Fluka; cat #:63605). The cells were examined for their ability to modulate pigment formation. […] Tests were performed in 6 replicates each. Following the treatment period (4 days), the level of pigment produced or melanin synthesized was quantified by reading the absorbance at 540 nm using a standard microplate reader (Tecan Group Ltd.).
After quantifying the amount of melanin, cell viability was determined using the MTT conversion method. The MTT conversion method measures the reduction of the MTT dye from a yellow colored, water-soluble, tetrazolium salt to a bluish-purple colored insoluble formazan precipitate by NAD(P)H-dependent microsomal dehydrogenase enzymes, which only function in viable cells. The intensity of the blue color is indicative of cell viability. After quantifying the amount of melanin pigment produced, the cells were exposed to MTT dye solution (1 mg/ml) for two to three hours. Formazan material was solubilized with reagent alcohol (95% ethanol: 5% isopropanol) and shaken on an orbital shaker for 15-30 minutes. MTT dye uptake and conversion by viable cells were determined by measuring the extracted formazan at 570 nm using a microplate reader. Total pigmentation was calculated, normalized to cell viability values and expressed as the average percent change in melanin activity relative to control of the six experiments performed.

Row | SMILES | Tyrosinase Inhibition (percent change in tyrosinase activity compared to DMSO vehicle control) ([1]; concentration 0.0010%) | Tyrosinase Inhibition (percent change in tyrosinase activity compared to DMSO vehicle control) ([1]; concentration 0.0100%) | B16 Assay Pigmentation Decrease (percent change in melanin compared to DMSO vehicle control) ([2]; concentration 0.0001%) | B16 Assay Pigmentation Decrease (percent change in melanin compared to DMSO vehicle control) ([2]; concentration 0.0010%)
1 | CN1CCN(c2nc(-c3ccc(O)cc3O)cs2)CC1 [AV5370] | −75% | −59% | −10% | −77%
2 | Cc1cc(C)cc(Nc2nc(-c3ccc(O)cc3O)cs2)c1 [AV4662] | −46% | – | −57% | –
